The record followed here is the PolyMetriX glass transition set.

± gives the standard deviation of the reports.

For the molecule `*/C=C/C(C*)COCC(=O)OCCCCCCCCOc1ccc(/C=C/c2ccc([N+](=O)[O-])cc2)cc1` (repeat unit), the glass transition temperature worked out at 23.00 °C.
`*/C=C/C1CC(*)C(C#N)([Si](C)(C)C)C1` (repeat unit): the glass transition temperature worked out at 211.00 °C.
Then `*/C=C/C1CC(*)C(F)(F)C1(F)OC(F)(F)C(F)(F)C(F)(F)F` (repeat unit), with 77.00 °C; and `*/C=C/C1CC(*)C2C(=O)N(c3ccc(C)cc3)C(=O)C12` (repeat unit), with 222.00 °C.
Then `*/C=C/C1CC(*)C2C(=O)N(c3cccc(C)c3)C(=O)C12` (repeat unit), with 206.00 °C; and `*/C=[CH]/[Ge]([*])([c]1ccccc1)[c]1ccccc1` (repeat unit), with -36.00 °C.
`*/C=[CH]/[Ge](/[CH]=C/[Si](*)(c1ccccc1)c1ccccc1)([c]1ccccc1)[c]1ccccc1` (repeat unit) returned a glass transition temperature of 28.00 °C.
Molecule `*/C=C/[Si](*)(c1ccccc1)c1ccccc1` (repeat unit) registered a glass transition temperature of -9.00 °C.
Molecule `*/C=C/c1cc(OC)c(/C=C/c2ccc(/C=C(\Oc3ccccc3)c3ccc(/C(=C/c4ccc(*)cc4)c4ccc(Oc5ccccc5)cc4)cc3)cc2)cc1OC` (repeat unit) displayed a glass transition temperature of 175.00 °C.
The same measure for `*/C=C/c1cc(OCC(CC)CCCC)c(*)cc1OC` (repeat unit): 79.00 °C; for `*/C=C/c1cc(OCC2CC3CC2C2CCCC32)c(*)cc1OC` (repeat unit): 174.00 °C.
The same measure for `*/C=C/c1cc(OCCC(C)CCCC(C)C)c(*)cc1OC` (repeat unit): 54.50 °C; for `*/C=C/c1cc(OCCCCCCCC)c(*)cc1OC` (repeat unit): 58.00 °C; for `*/C=C/c1ccc(/C=C/[Si](C)(CCC(F)(F)F)c2ccc([Si](*)(C)CCC(F)(F)F)cc2)cc1` (repeat unit): 55.70 °C.
Then `*CCCCCCCCCCOc1c(OC)cc(/C=C/c2ccc(/C=C/c3cc(OC)c(O*)c(OC)c3)cc2)cc1OC` (repeat unit), with 68.50 °C; and `*CCCCCCCCCCOc1ccc(/C=C2\CCC/C(=C\c3ccc(O*)cc3)C2=O)cc1` (repeat unit), with 85.00 °C.
In turn, `*CCCCCCCCOc1c(OC)cc(/C=C/c2cc(CCCCCC)c(/C=C/c3cc(OC)c(O*)c(OC)c3)cc2CCCCCC)cc1OC` (repeat unit) returned a glass transition temperature of 21.00 °C.
The same measure for `*CCCCCCOc1ccc(/C=C2\CCC/C(=C\c3ccc(O*)cc3)C2=O)cc1` (repeat unit): 116.00 °C; for `*CCCCOCCCCOCCCCOC(=O)c1ccc(/N=C/c2cc(OCCCCCC)c(/C=C/c3cc(OCCCCCC)c(/C=C/c4cc(OCCCCCC)c(/C=N/c5ccc(C(=O)O*)cc5)cc4OCCCCCC)cc3OCCCCCC)cc2OCCCCCC)cc1` (repeat unit): 14.30 °C; for `*CCOCCOCCOCCOCCOc1ccc(/C=C(\C)c2ccc(O*)cc2)cc1` (repeat unit): 17.00 °C.
Molecule `*CCOCCOCCOc1ccc(/C=C(\C)c2ccc(O*)cc2)cc1` (repeat unit) registered a glass transition temperature of 16.00 °C.
The same measure for `*CC(*)C=C` (repeat unit) [Poly(1,2-butadiene)]: -6.08 ± 1.3 °C.
`*CC(*)(C)C(=O)OCC(F)(F)F` (repeat unit) [Poly(2,2,2-trifluoroethyl methacrylate)]: the glass transition temperature was 74.42 ± 0.8 °C.
The same measure for `*CC(*)(C)C(=O)OCC(F)(F)C(F)F` (repeat unit) [Poly(2,2,3,3-tetrafluoropropyl methacrylate)]: 75.42 ± 6.5 °C; for `*CC(*)c1cc(C)ccc1C` (repeat unit) [Poly(2,5-dimethyl styrene) ]: 143 ± 0.6 °C.
On to `*CC(*)(C)C(=O)OCCCl` (repeat unit) [Poly(2-chloroethyl methacrylate) ], for which the glass transition temperature is 90 ± 16 °C.
`*CC(*)C(=O)OCC(CC)CCCC` (repeat unit) [Poly(2-ethylhexyl acrylate)] gave a glass transition temperature of -57.08 ± 7 °C.
The same measure for `*CC(*)C(F)(F)F` (repeat unit) [Poly(3,3,3-trifluoropropylene) ]: 27 ± 2.3 °C.
Consider `*CC(*)c1ccc(Cl)c(F)c1` (repeat unit) [Poly(3-fluoro-4-chloro styrene) ], for which the glass transition temperature came to 122 ± 0.6 °C.
Then `*Oc1ccc(Sc2ccc(OC(*)=O)cc2)cc1` (repeat unit) [Poly(4,4'-thiodiphenylene carbonate)], with 113.4 ± 2.1 °C; and `*CC(*)c1ccc(Br)cc1` (repeat unit) [Poly(4-bromostyrene)], with 140.4 ± 5.4 °C; and `*CC(*)c1ccc(Cl)cc1` (repeat unit) [Poly(4-chlorostyrene)], with 119.92 ± 5.3 °C.
The same measure for `*CCCCCC(=O)N*` (repeat unit) [Poly(6-aminohexanoic acid)]: 55.73 ± 5.6 °C; for `*CC(*)C(=O)NC(C)C` (repeat unit) [Poly(N-isopropyl acrylamide)]: 85.2 ± 56 °C; for `*CC(*)N1CCCC1=O` (repeat unit) [Poly(N-vinyl pyrrolidone)]: 145 ± 7.9 °C.
The molecule `*CC(*)C#N` (repeat unit) [Poly(acrylonitrile)] yielded a glass transition temperature of 110 ± 12 °C.
As to `*Oc1ccc(C(C)(C)c2ccc(OC(*)=O)cc2)cc1` (repeat unit) [Poly(bisphenol A carbonate)], the glass transition temperature is 152.42 ± 6.3 °C.
Take `*CCCCCCCCCCOC(=O)CCCCC(=O)O*` (repeat unit) [Poly(decamethylene adipate) ]: the glass transition temperature is -57 ± 6.6 °C.
The same measure for `*O[Si](*)(C)C` (repeat unit) [Poly(dimethylsiloxane)]: -124 ± 2 °C; for `*CC(*)C(=O)OCC` (repeat unit) [Poly(ethyl acrylate) ]: -22 ± 2.1 °C; for `*CCOC(=O)CCCCC(=O)O*` (repeat unit) [Poly(ethylene adipate)]: -48.83 ± 8 °C.
Then `*CCOC(=O)c1ccccc1C(=O)O*` (repeat unit) [Poly(ethylene phthalate)], with 60.17 ± 51 °C; and `*CCOC(=O)CCCCCCCCC(=O)O*` (repeat unit) [Poly(ethylene sebacate)], with -29.6 ± 3.9 °C; and `*CCS*` (repeat unit) [Poly(ethylene sulfide)], with -25.83 ± 34 °C.
As for `*CC(*)CCCCCC` (repeat unit) [Poly(hexylethylene)], the glass transition temperature was -54.58 ± 0.8 °C.
`*CC(*)(C)C(=O)OC(C)C` (repeat unit) [Poly(isopropyl methacrylate)] had a glass transition temperature of 83.92 ± 1.5 °C.
Then `*CC(*)C(C)C` (repeat unit) [Poly(isopropylethylene)], with 49 ± 18 °C; and `*CC(*)c1cccc(C)c1` (repeat unit) [Poly(m-methyl styrene) ], with 95 ± 11 °C.
Then `*CC(*)(C)C#N` (repeat unit) [Poly(methacrylonitrile)], with 101.67 ± 19 °C.
As to `*CC(*)C(=O)OCCC` (repeat unit) [Poly(n-propyl acrylate) ], the glass transition temperature is -41.33 ± 4 °C.
The same measure for `*CC(*)c1ccccn1` (repeat unit) [Poly(o-vinyl pyridine) ]: 104 ± 1.1 °C; for `*Oc1ccc(C(*)=O)cc1` (repeat unit) [Poly(p-hydroxybenzoate)]: 147 ± 8.5 °C.
For `*CC(*)c1ccc(COC)cc1` (repeat unit) [Poly(p-methoxymethyl styrene)], the glass transition temperature is 77 ± 0.6 °C.
Consider `*CC(*)c1ccc(OCCCC)cc1` (repeat unit) [Poly(p-n-butoxy styrene) ], for which the glass transition temperature is 47 ± 3.3 °C.
As to `*CC(*)c1ccc(CCCC)cc1` (repeat unit) [Poly(p-n-butyl styrene) ], the glass transition temperature was 6 ± 0.6 °C.
`*CC(*)c1ccc(OCCC)cc1` (repeat unit) [Poly(p-n-propoxy styrene)] had a glass transition temperature of 70 ± 3.5 °C.
The same measure for `*CC(*)c1ccc(COCCC)cc1` (repeat unit) [Poly(p-n-propoxymethyl styrene) ]: 22 ± 1.2 °C; for `*CC(*)c1ccc(-c2ccccc2)cc1` (repeat unit) [Poly(p-phenyl styrene) ]: 138 ± 14 °C.
`*/C=C/c1ccc(*)cc1` (repeat unit) [Poly(p-phenylenevinylene)s] returned a glass transition temperature of 137.42 ± 150 °C.
`*CC(*)c1ccncc1` (repeat unit) [Poly(p-vinyl pyridine) ] showed a glass transition temperature of 142 ± 5.4 °C.
The same measure for `*CC(*)CCCCC` (repeat unit) [Poly(pentylethylene)]: -44.33 ± 1.7 °C; for `*CCC(=O)N*` (repeat unit) [Poly(propano-3-lactam)]: 128.17 ± 24 °C; for `*CC(C)S*` (repeat unit) [Poly(propylene sulfide) ]: -47 ± 2.7 °C.
The same measure for `*CC(*)C` (repeat unit) [Poly(propylene)]: -24.6 ± 21 °C.
Then `*CC(*)C(=O)OC(C)CC` (repeat unit) [Poly(sec-butyl acrylate)], with -20 ± 1.8 °C; and `*CC(*)C(=O)OC(C)(C)C` (repeat unit) [Poly(t-butyl acrylate)], with 41 ± 0.9 °C; and `*CC(*)(C)C(=O)OC(C)(C)C` (repeat unit) [Poly(t-butyl methacrylate) ], with 107 ± 0.6 °C.
Take `*CC(*)C(=O)OCCCC` (repeat unit) [Poly(tert-butyl acrylate)]: the glass transition temperature is -51.58 ± 45 °C.
